Measurements: ChEMBL document CHEMBL1132349, “Lead generation using pharmacophore mapping and three-dimensional database searching: application to muscarinic M(3) receptor antagonists” (J Med Chem, 1999)

These molecules were tested against Muscarinic acetylcholine receptor M3 (Cavia porcellus, UniProt Q8VH26) (assay: The compound was tested for antagonistic activity against Muscarinic acetylcholine receptor M3 in guinea pig trachea). Details: read-out: pA2 (converted).
Type: functional

Muscarinic acetylcholine receptor M3, sequence (Q8VH26 whole entry): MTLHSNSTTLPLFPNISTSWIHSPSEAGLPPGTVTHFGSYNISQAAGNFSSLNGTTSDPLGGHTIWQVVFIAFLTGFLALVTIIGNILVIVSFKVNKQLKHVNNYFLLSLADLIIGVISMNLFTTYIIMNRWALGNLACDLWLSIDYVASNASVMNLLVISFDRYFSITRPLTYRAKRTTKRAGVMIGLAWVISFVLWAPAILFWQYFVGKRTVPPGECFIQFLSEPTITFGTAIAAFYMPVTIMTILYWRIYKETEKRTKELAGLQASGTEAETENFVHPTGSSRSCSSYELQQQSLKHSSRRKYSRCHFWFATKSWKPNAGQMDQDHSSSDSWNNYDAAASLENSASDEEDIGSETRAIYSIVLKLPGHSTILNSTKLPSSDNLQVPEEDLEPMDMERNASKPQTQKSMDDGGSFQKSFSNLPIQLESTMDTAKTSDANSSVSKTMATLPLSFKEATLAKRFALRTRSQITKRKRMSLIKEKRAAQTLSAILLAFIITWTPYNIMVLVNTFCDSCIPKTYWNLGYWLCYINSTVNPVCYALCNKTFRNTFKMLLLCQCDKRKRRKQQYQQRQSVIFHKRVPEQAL

Row | Kb | Compound
1 | 214 nM | CCN(CC)CCOc1ccccc1C(=O)Cc1ccccc1
2 | 2880 nM | O=C(Nc1ccccc1)OC1CCCCC1CN1CCOCC1 (stereo not drawn)
3 | 14800 nM | CCCOc1ccccc1C(=O)NC1CCCCC1CN1CCCCC1 (stereo not drawn)
